In patent US20240252494A1, “Mechanotransduction Disruption Mediation in Skin Grafting Methods and Compositions for Use in Practicing the Same” (The Board of Trustees of the Leland Stanford Junior …, priority 2021, published 2024):

How the values were obtained:
porcine fibroblasts = test: 3D organotypic scar culture system (strained collagen scaffolds), scRNA-seq; assay type: cell-based; details: 10% strain, 10 µM FAKI
Excerpt: (§1) To determine whether the increased mechanical strain experienced by cells within the healing STSG would trigger the same fibroblast transcriptional states observed in vivo, we used our previously published three-dimensional (3D) organotypic scar culture system that permits the precise manipulation of strain (and therefore stress) without any other potential confounding factors (27, 98). Fibroblasts were first isolated from human skin and seeded within 3D collagen scaffolds (FIG. 8A). These scaffolds were then subjected to either 10% strain (Strain, S), 10% strain with FAK inhibition (Strain+FAKI, S+FAKI), or 0% strain (No Strain, NS) as a control (FIG. 8, A to C). Because it seemed likely that healing tissue would not be subjected to maximal strains (due to pain), we used a strain profile of 10% to represent the average wound strain environment.
We isolated and cultured dermal fibroblasts from both healthy human and porcine skin samples. Fibroblasts were isolated by mechanical and enzymatic digestion and cultured under standard conditions until passage 3. […]
We used a suture to paint nine Titanium(IV) oxide dots (Sigma-Aldrich 248576) on the surface of the central region of the gel to track and quantify the imposed strains. […]

[1] = tested on: full-thickness excisional wounds with STSG; test: Histological analysis of collagen architecture of porcine STSG; assay type: in vivo, red Duroc pigs
Method: (§2) STSG were not disturbed during the first 3 days.
No patient identifying information was retained with the samples.
Masson's Trichrome staining and Picrosirius Red staining were performed, and images were captured with a Leica DM5000 B upright microscope. For Picrosirius Red, polarized light microscopy was used to obtain 40× magnification images and analysis of fiber alignment was performed using CurveAlign (109) and MatFiber (98, 110). The strength of alignment ranges from a value of 0 (completely random fiber alignment) to 1 (completely aligned fibers). Quantification of individual collagen fiber parameters (fiber length, width) was performed using CT-FIRE (http://loci.wisc.edu/software/ctfire) (109, 113).

human fibroblasts = test: 3D organotypic scar culture system (strained collagen scaffolds), immunofluorescent staining; assay type: cell-based; details: 10% strain, 48 hours, 10 µM FAKI, vs strained fibroblasts
Excerpt: as §1
We isolated and cultured dermal fibroblasts from both healthy human and porcine skin samples. Fibroblasts were isolated by mechanical and enzymatic digestion and cultured under standard conditions until passage 3. Following our previously published protocols (98), we used the primary fibroblasts to create fibroblast-populated collagen hydrogels with a concentration of 200 k cells/mL and 2 mg/mL collagen (PureCol, Advanced Biomatrix 5005). In brief, collagen scaffolds were formulated in a cruciform shape with sponges in the arms and cultured in petri dishes on top of a layer (˜0.5 cm) of cured polydimethylsiloxane (PDMS; Sylgard 184 Silicone Elastomer Kit; Dow Corning). Pins were pushed through the sponges in the hydrogel cruciform arms to constrain the scaffolds during an initial pre-culture period (24h). Then, we subjected the scaffolds to either 0% strain (no strain) or 10% equibiaxial strain (either with or without FAKI) for an additional 48 hours. Strained but untreated cells were given 10 μL DMSO in 20 mL culture media, while strained and treated cells were administered 10 μL of 20 mM FAKI in DMSO in 20 mL culture media to achieve a final concentration of 10 µM FAKI.
We used a suture to paint nine Titanium(IV) oxide dots (Sigma-Aldrich 248576) on the surface of the central region of the gel to track and quantify the imposed strains. We used a digital camera to image the markers before and after strain. Strain was imposed by removing the pins, manually extending the hydrogel cruciform arms, and pushing the pins back through the arms to hold the scaffold in a new, extended position. Photographs of the marker positions were used to compute a single homogenous deformation gradient tensor F that provided the least-squares best fit mapping of the 9 marker positions from the undeformed to deformed positions by solving the overdetermined matrix equation: […]

porcine STSG cells = test: scRNA-seq of porcine STSG tissue; assay type: in vivo, red Duroc pigs; details: for number of DEGs between untreated STSG and STSG treated with FAKI: POD7
Method: We obtained a 1 cm^2 tissue from the center of our STSG groups or unwounded skin. The tissue was thoroughly cut into small 1 mm^2 pieces using a scalpel before then being carefully minced with fine scissors. To maximize cell capture for scRNA-seq, diligent care was made to cut the tissue into a fine tissue paste consistency. An increased enzyme concentration and volume of 30 ml of 1 mg/mL Liberase (Sigma-Aldrich 5401127001) in PBS were used to fully break down the dense, fibrotic porcine extracellular matrix. The cell-digest suspensions were constantly agitated (rotated) for a total of 2 hours at 37° C. Tissue solution was subjected to maximum speed vortex mixer (VWR) for 30 seconds before being placed in the oven, after 1 hour, and again after total of 2 hours to physically disrupt any tissue that had clumped together and maximize the tissue surface area exposed to enzymatic digestion at all times.
The tissue solution was filtered through a 100 μm Nylon cell filter (Fisher-Scientific 08-771-19) into a new conical tube, and 20 mL of 10% FBS DMEM was added through the filter to quench the enzymatic reaction and release any cells trapped within the filter, maximizing downstream cell yield. Solutions were spun at 350×g for 5 min at 4° C. in a centrifuge, supernatant was aspirated, and cells were then resuspended in 20 mL 10% FBS DMEM and passed through a 70 μm Nylon cell filter. A 20 mL solution of 10% FBS in PBS (FACS Buffer) was added through the filter to wash the remaining cells.
This cellular suspension was then resuspended in a concentrated solution and submitted for droplet-based microfluidic single cell RNA sequencing (scRNA-seq) at the Stanford Functional Genomics Facility (SFGF) using the 10× Chromium Single Cell platform (Single Cell 3′ v3, 10× Genomics, USA). The cell suspension, reverse transcription master mix, and partitioning oil was loaded onto a single cell chip, processed on the Chromium Controller, and reverse transcription was performed at 53° C. for 45 min. cDNA was amplified for 12 cycles total (BioRad C1000 Touch thermocycler) with cDNA size selected using SpriSelect beads (Beckman Coulter, USA) and a 3:5 ratio of SpriSelect reagent volume to sample volume. cDNA was analyzed on an Agilent Bioanalyzer High Sensitivity DNA chip for qualitative control, fragmented for 5 min at 32° C., followed by end repair and A-tailing at 65° C. for 30 min, and then double-sided size selected with SpriSelect. Sequencing adaptors were ligated to the cDNA at 20° C. for 15 min. cDNA was amplified using a sample-specific index oligo as primer, followed by another round of double-sided size selection. Final libraries were analyzed on an Agilent Bioanalyzer High Sensitivity DNA chip for qualitative control purposes. cDNA libraries were sequenced on a HiSeq 4000 Illumina platform aiming for 50,000 reads per cell.
Base calls were converted to reads using the Cell Ranger (10× Genomics; version 3.1) implementation of mkfastq and then aligned against our custom pig transcriptome using Cell Ranger's count function with SC3Pv3 chemistry and 5,000 expected cells per sample (51). Cell barcodes were filtered for high quality based on an optimized threshold of having at least 200 unique transcripts profiled, less than 10,000 total transcripts, and less than 10% of their transcriptome of mitochondrial origin (114).
Unique molecular identifiers (UMIs) from each cell barcode were retained for all downstream analysis. Raw UMI counts were normalized with a scale factor of 10,000 UMIs per cell and subsequently natural log transformed with a pseudocount of 1 using the R package Seurat (version 3.1.1) (52). Highly variable genes were identified, and cells were scaled by regression to the fraction of mitochondrial transcripts. Aggregated data was then evaluated using uniform manifold approximation and projection (UMAP) analysis over the first 15 principal components (115). […]

[2] = tested on: full-thickness excisional wounds with STSG; test: Cutometer viscoelastic analysis of STSG biomechanical properties; assay type: in vivo, red Duroc pigs; details: vs untreated STSG; P<0.05
Excerpt: as §2
(§3) After three weeks, dressings (and hydrogels) were changed twice per week until month 3. STSG were no longer bolster dressed and instead a conventional dressing was used (Telfa+Tegaderm). Each STSG within the animal was biopsied for histological and molecular evaluation at the end of the study.
A cutometer (Dual MPA 580, Courage+Khazaka Electronic) was used to evaluate the firmness and elasticity of the healing tissue and unwounded skin. Cutometer assessment is one of the most common instruments to measure viscoelasticity in human patients (111, 112), measuring the vertical deformation of the skin surface by applying negative pressure (suction) through a small circular diameter (8 mm probe). Deformation (suction) for two seconds followed by two seconds of relaxation (no suction) was applied three times and averaged. The firmness 0 was measured as the amplitude at the end of the suction phase (RO metric) and normalized against the values of STSG treated with blank hydrogels (111). Increased deformation to a consistent negative pressure corresponds to less firm tissue, more similar to unwounded skin.

[3] = tested on: full-thickness excisional wounds with STSG; test: Scar contracture analysis in porcine STSG model; assay type: in vivo, red Duroc pigs
Excerpt: as §2, §3
STSG were monitored photographically at each dressing change. Each image was taken with a ruler or standard measurement device to standardize measurements. Scar areas were traced over time in ImageJ. Contracture was measured as change in scar area, normalized to the area of the STSG during the first dressing change. Two independent evaluators measured scar area, and the resultant scar area was the average of the two measurements.

tumor growth = details: in vivo; cited from earlier work
[4] = POD90, regenerative lineages 1 and 2

SMILES: CN(c1ncccc1CNc1nc(Nc2ccc3c(c2)CC(=O)N3)ncc1C(F)(F)F)S(C)(=O)=O [FAKI]
- APOE, EGR1 and PRDX1 expression (porcine fibroblasts): upregulation
- pro-fibrotic responses (CXCL14, THBS2, COL1A1 expression) (porcine fibroblasts): abrogated
- collagen fiber length and alignment ([1]; deep dermis, POD90, P<0.05): shorter and more randomly aligned
- overall collagen deposition ([1]; superficial and deep dermis, by decreasing fiber widths and architectural complexity): decreased
- CD34 expression (human fibroblasts; P<0.0001): significantly increasing
- APOE expression (human fibroblasts; P<0.01): significantly increasing
- aSMA expression (human fibroblasts; P<0.01): significantly decreased
- CXCL14 expression (human fibroblasts; P<0.05): significantly decreased
- THBS4 expression (human fibroblasts; P<0.05): significantly decreased
- number of DEGs between untreated STSG and STSG treated with FAKI (porcine STSG cells; all other cell types): < 75
- number of DEGs between untreated STSG and STSG treated with FAKI (porcine STSG cells; fibroblasts): about 50
- number of DEGs between untreated STSG and STSG treated with FAKI (porcine STSG cells; monocyte-lineage cells (macrophages, monocytes, dendritic cells)): > 170
- number of DEGs between untreated STSG and STSG treated with FAKI (porcine STSG cells; neutrophils and lymphoid cells, each): around 100
- adipogenic gene sets and stem cell markers (CD34 and NT5E) in fibroblasts (porcine STSG cells; POD90, lineages 1 and 2): promoted
- fibroblast transcriptional state (CellRank lineages) (porcine STSG cells; POD90, primarily lineages 1 and 2): transcriptional similarity to those from unwounded skin
- APOE, CLEC3B, CD34, and PPARG unspliced pre-mRNA in fibroblasts (porcine STSG cells; [4]): upregulation
- pro-fibrotic genes in fibroblasts (porcine STSG cells; [4]): abrogation
- STSG firmness and stiffness (cutometer deformation) [2]: less firm and less stiff
- scar contracture at early time points ([3]; POD7, P=0.09, POD21, P<0.05): blocked scar contracture
- scar contracture ([3]; POD28, change in scar area normalized to STSG area at first dressing change, untreated and blank hydrogel-treated STSGs over 70%): 30%
- secretion of IP-10 (CXCL10) (porcine STSG tissue; POD 7, P<0.05): upregulated
- number of infiltrating inflammatory cells (F4/80-positive macrophages) (porcine STSG tissue; early (POD 7, P<0.001) and late (POD 90, P<0.05) time points): significantly decreased
- tumor growth (tumor growth): blocks tumor growth
